From patent US9724331B2, “Use of maleimide derivatives for preventing and treating leukemia” (CENTOGENE AG, priority 2012, dated 2017)
“Also recorded” adds a separate entry of the source.

Legend:
Type in all cases: cell-based, human
[1] = system: Jurkat cells; test: May Grunwald-Giemsa staining, morphology by light microscopy; details: 1 μM PDA-66, 48 h, vs. DMSO treated control cells
Experimental: (§1) Cytospins of SEM and Jurkat cells were stained with May Grunwald-Giemsa Staining after 48 h of incubation with 1 μM PDA-66 and DMSO, respectively
(§2) After treatment with 1 μM PDA-66 3×10^4 cells were brought onto object slides with Cytospin 3 centrifuge (Shandon, Frankfurt/Main, Germany). Subsequently cells were stained using May-Grunwald-Giemsa staining. Briefly, slides were incubated in May-Grunwald solution (Merck, Darmstadt, Germany) for 6 min, then washed with tap water, incubated in Giemsa solution (Merck, Darmstadt, Germany) for 20 min and washed in tap water again. After letting the slides dry the cells were analyzed by Nikon Eclipse E 600 light microscope and pictures were taken with NIS Elements software (Nikon, Düsseldorf, Germany).

[2] = system: SEM cells; test: as above; details: 1 μM PDA-66, 48 h, vs. DMSO treated control cells
Experimental: as §1, §2

[3] = system: Jurkat cells; test: Cell cycle analysis, propidium iodide staining, flow cytometry; details: 1 μM PDA-66, mean±SD
Experimental: (§3) After treatment cells were harvested and washed twice in PBS. Cells were fixed with 70% ethanol and incubated with 1 mg/ml Ribonuclease A (Sigma-Aldrich, St. Louis, USA) for 30 min at 37° C. After washing the cells twice in PBS, they were stained with PI (50 μg/ml) and DNA content was determined by flow cytometry. All cell lines were incubated with PDA-66 and cell cycle distribution was determined using Propidium iodide staining.
(§4) The treatment with PDA-66 influenced the four cell lines differently. […] G2 arrest could be detected in RS4;11 and Molt-4 cells after 48 h of treatment. Treatment of Jurkat cells induced a decrease of cells in G0/G1 phase in favor of cells in S phase.

[4] = system: Molt-4 cells; test: as above
Experimental: as §3, §4

[5] = system: RS4;11 cells; test: as above
Experimental: as §3, §4

[6] = system: SEM cells; test: as above
Experimental: as §3, §4

[7] = system: Jurkat cells; test: Apoptosis and necrosis, Annexin V FITC / PI flow cytometry
Experimental: (§5) Apoptosis and necrosis were analyzed by staining the cells with Annexin V FITC (BD Biosciences, Heidelberg, Germany) and propidium iodide (PI) (Sigma Aldrich, St. Louis, USA). Results were assessed by flow cytometry.
(§6) (A) Cells were treated with PDA-66 for up to 72 h and stained with Annexin V FITC and Propidium iodide (PI). Rates of early apoptotic (FITC^+, PI^−) and late apoptotic and necrotic (FITC^+, PI^+) cells were measured by flow cytometry. Significant induction of apoptosis could be observed in all cell lines after 48 h of incubation as well as tendential induction of necrosis at both points of time. […] (B) Induction of apoptosis was confirmed by Western blot. Cells were treated with different concentrations of PDA-66 and total cell lysates (25 μg) were analyzed by Western blot to detect cleavage of Caspase 3, 7 and PARP. GAPDH was used as loading control.
(§7) More specifically, 5×10^5 cells were harvested and washed twice (180 g, 10 min, 4° C.) with PBS. After resuspending the cells in 100 μl of binding buffer (1×) 4 μl of Annexin V FITC were added and incubated for 15 min at room temperature. Following addition of 400 μl binding buffer for a final volume of 500 μl the cells were stained with PI (0.6 μg/ml) immediately before measurement. As controls unstained and single stained cells were included in each experiment. Measurements were performed using FACSCalibur (Becton and Dickinson, Heidelberg, Germany) and data analyses were carried out with CellQuest software (Becton and Dickinson, Heidelberg, Germany).

[8] = system: Molt-4 cells; test: as above
Experimental: as §5, §6, §7

[9] = system: RS4;11 cells; test: as above
Experimental: as §5, §6, §7

[10] = system: SEM cells; test: as above
Experimental: as §5, §6, §7

[11] = system: PI3K/Akt and Wnt/β-catenin pathway in Jurkat cells; test: Western blot, PI3K/Akt and Wnt/β-catenin pathway
Experimental: (§8) After treatment with PDA-66 and DMSO, respectively, cells were lyzed and protein expression analyzed with Western blot.
(§9) Protein extraction and Western blot was performed as described above. Following polyclonal antibodies were used: rabbit anti-cleaved caspase 3, rabbit anti-caspase 3, rabbit anti-cleaved PARP, rabbit anti-PARP, rabbit anti-cleaved caspase 7, rabbit anti-caspase 7, rabbit anti-pAktThr308, rabbit anti-pAktSer473, rabbit anti-Akt, rabbit anti-β-catenin, rabbit anti-pGSK3βSer9, rabbit anti-GSK3β, rabbit anti-p4EBP-1Ser65 and rabbit anti-4EBP-1 (all Cell Signaling Frankfurt/Main, Germany). Blots were incubated with mouse anti-GAPDH antibody (Invitrogen, Carlsbad, USA) as loading control.

[12] = system: PI3K/Akt and Wnt/β-catenin pathway in Molt-4 cells; test: Western blot, PI3K/Akt and Wnt/β-catenin pathway; details: incubation of 4 and 24 h
Experimental: as §8, §9

[13] = system: PI3K/Akt and Wnt/β-catenin pathway in RS4;11 cells; test: Western blot, PI3K/Akt and Wnt/β-catenin pathway; details: incubation of 4 and 24 h
Experimental: as §8, §9

[14] = system: PI3K/Akt and Wnt/β-catenin pathway in SEM cells; test: Western blot, PI3K/Akt and Wnt/β-catenin pathway
Experimental: as §8, §9

[15] = SEM cells shown exemplarily (FIG. 6A)
[16] = SEM cells, incubation of 4 and 24 h

CC(=O)c1ccc(C2=C(c3c(C)[nH]c4ccccc34)C(=O)N(C)C2=O)cc1 [PDA-66, 3-(4-Acetylphenyl)-1-methyl-4-(2-methyl-1H-indol-3-yl)-1H-pyrrole-2,5-dione]
morphology [1]: condensation of chromatin in the nucleus, karyorrhexis and an increasing amount of vacuoles and cell debris | morphology [2]: condensation of chromatin in the nucleus, karyorrhexis and an increasing amount of vacuoles and cell debris | amount of cells in G0/G1 phase [3]: 47.3±4.3% | amount of cells in S phase [3]: 20.0±1.1% | amount of cells in G0/G1 phase ([4]; 1 μM PDA-66, 48 h, mean±SD): 45.0±7.3% | amount of cells in G2 phase ([4]; 1 μM PDA-66, 48 h, mean±SD): 41.0±5.8% | cells in G0/G1 phase ([4]; smaller dosages than 1 μM): significant increase | amount of cells in G0/G1 phase ([5]; 1 μM PDA-66, 48 h, mean±SD): 47.3±2.7% | amount of cells in G2 phase ([5]; 1 μM PDA-66, 48 h, mean±SD): 42.1±4.4% | cells in G0/G1 phase ([5]; smaller dosages than 1 μM): significant increase | amount of cells in G0/G1 ([6]; 0.5 μM PDA-66, 48 h, mean±SD): 69.3±2.7% | effect on cell cycle ([6]; 1 μM PDA-66, 48 h): did not affect the cell cycle significantly | necrosis ([7]; 1 μM PDA-66, 48 h): tendential increase | apoptosis (early apoptotic cells, FITC+, PI−) ([7]; 1 μM PDA-66, 48 h, mean±SD): 8.3±1.9% | apoptosis (early apoptotic cells, FITC+, PI−) ([7]; 1 μM PDA-66, 72 h, mean±SD): 6.1±0.7% | necrosis rate (late apoptotic and necrotic cells, FITC+, PI+) ([7]; 1 μM PDA-66, 72 h, mean±SD): 28.0±13.4% | necrosis ([8]; 1 μM PDA-66, 48 h): tendential increase | apoptosis (early apoptotic cells, FITC+, PI−) ([8]; 1 μM PDA-66, 48 h, mean±SD): 16.3±5.1% | apoptosis (early apoptotic cells, FITC+, PI−) ([8]; 1 μM PDA-66, 72 h, mean±SD): 20.1±6.6% | necrosis rate (late apoptotic and necrotic cells, FITC+, PI+) ([8]; 1 μM PDA-66, 72 h, mean±SD): 46.7±15.6% | necrosis ([9]; 1 μM PDA-66, 48 h): tendential increase | apoptosis (early apoptotic cells, FITC+, PI−) ([9]; 1 μM PDA-66, 48 h, mean±SD): 7.4±1.1% | apoptosis (early apoptotic cells, FITC+, PI−) ([9]; 1 μM PDA-66, 72 h, mean±SD): 6.4±3.6% | necrosis rate (late apoptotic and necrotic cells, FITC+, PI+) ([9]; 1 μM PDA-66, 72 h, mean±SD): 26.5±10.2% | necrosis ([10]; 1 μM PDA-66, 48 h): tendential increase | apoptosis (early apoptotic cells, FITC+, PI−) ([10]; 1 μM PDA-66, 48 h, mean±SD): 10.5±1.3% | apoptosis (early apoptotic cells, FITC+, PI−) ([10]; 1 μM PDA-66, 72 h, mean±SD): 5.6±1.6% | necrosis rate (late apoptotic and necrotic cells, FITC+, PI+) ([10]; 1 μM PDA-66, 72 h, mean±SD): 27.8±5.81% | expression of p4EBP-1Ser65 ([11]; incubation of 4 and 24 h): decrease | expression of total 4EBP-1 ([11]; incubation of 4 and 24 h): decrease | pAktSer473 ([11]; incubation of 24 h): not confirmed by a rise | pAktThr308 ([11]; incubation of 24 h): increase | expression of p4EBP-1Ser65 [12]: increased expression; also recorded: increase | expression of p4EBP-1Ser65 [13]: decrease | expression of total 4EBP-1 [13]: decrease | expression of total Akt [14, 15]: no influence | expression of total GSK3β [14, 15]: no influence | expression of β-catenin [14, 15]: no influence | pGSK3βSer9 ([14]; SEM cells, after 4 h): small decrease; also recorded: slight decrease | expression of p4EBP-1Ser65 [14, 16]: decrease | expression of total 4EBP-1 [14, 16]: decrease | pAktSer473 ([14]; SEM cells, incubation of 24 h): not confirmed by an increase; also recorded: not confirmed by a rise | pAktThr308 ([14]; SEM cells, incubation of 24 h): slight increase
